From PubChem BioAssay (NCI)
Where “and” joins values, the source holds several entries; their conditions need not be identical. Equal values may be shown once.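 A five-concentration, 48-hour dose response in 96-well plates underlies each endpoint, interpolated linearly between surrounding concentrations. GI50 is the concentration that inhibits growth by half. At the TGI there is no net growth.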 Where a SMILES comes first, the peptide text is derived from it.

Tests used:
Test in all cases: DTP human tumour cell line panel, 48 h
[1] = test system: A498 renal
[2] = test system: ACHN renal
[3] = test system: HCC-2998 colon
[4] = test system: NCI-H460 lung
[5] = test system: OVCAR-3 ovarian
[6] = test system: OVCAR-4 ovarian
[7] = test system: RXF 393 renal
[8] = test system: SF-539 CNS
[9] = test system: SNB-75 CNS
[10] = test system: SW-620 colon

Structure (SMILES)	TGI [1]	TGI [2]	TGI [3]	TGI [4]	TGI [5]	TGI [6]	TGI [7]	TGI [8]	TGI [9]	TGI [10]	GI50 [1]	GI50 [2]	GI50 [3]	GI50 [4]	GI50 [5]	GI50 [6]	GI50 [7]	GI50 [8]	GI50 [9]	GI50 [10]
O=C(CC1(O)C(=O)Nc2ccccc21)c1ccc(O)cc1 (centres undefined)	> 100 µM	> 100 µM	> 100 µM	> 100 µM	> 100 µM	> 100 µM	> 100 µM	> 100 µM	> 100 µM	> 100 µM	–	–	–	–	–	–	–	–	–	–
Cc1cc(C(=O)O)c(C)n1-c1cccc(C(=O)O)c1	> 100 µM	> 100 µM	> 100 µM	> 100 µM	> 100 µM	> 100 µM	> 100 µM	> 100 µM	> 100 µM	> 100 µM	> 100 µM	> 100 µM	> 100 µM	> 100 µM	> 100 µM	> 100 µM	> 100 µM	> 100 µM	> 100 µM	> 100 µM
Cn1c2ccccc2c2c3[nH][nH]c(=O)c3c3c4ccccc4[nH]c3c21	5.79 µM	> 100 µM	8.1 µM	10.8 µM	7.8 µM	13.2 µM	3.57 µM	3.12 µM	3.53 µM	14.3 µM	1.61 µM	2.6 µM	2.74 µM	1.57 µM	1.94 µM	2.6 µM	1.51 µM	1.22 µM	0.355 µM	2.4 µM
C/C(=N\N=C(\[Se])N(C)C)c1ccccn1	9.94 µM	13.2 µM	13.9 µM	4.17 µM	11.8 µM	13.9 µM	6.23 µM	9.03 µM	15.5 µM	15.2 µM	–	–	–	–	–	–	–	–	–	–
COc1cc(N2CCN(C(C)C)CC2)ccc1Nc1nc(Nc2cccc(F)c2C(=O)O)c2cc[nH]c2n1	> 25 µM	> 25 µM	> 25 µM	> 25 µM	> 25 µM	> 25 µM	> 25 µM	> 25 µM	> 25 µM	> 25 µM	> 25 µM	> 25 µM	> 25 µM	> 25 µM	> 25 µM	> 25 µM	> 25 µM	> 25 µM	> 25 µM	> 25 µM
CC(C)CC(Nc1c(O)ccc2ccccc12)C(=O)O (centres undefined)	67.3 µM	76 µM	> 100 µM	> 100 µM	62.1 µM	> 100 µM	35.8 µM	47.6 µM	> 100 µM	> 100 µM	–	–	–	–	–	–	–	–	–	–
c1cncc(C2Nc3cccc4cccc(c34)N2)c1	> 100 µM	34.5 µM	> 100 µM	> 100 µM	37.1 µM	27.3 µM	33 µM	> 100 µM	> 100 µM	36.3 µM	30.9 µM	17.3 µM	> 100 µM	> 100 µM	17.8 µM	13.8 µM	16.8 µM	39 µM	17.9 µM	18.4 µM
CN1CCN(c2nc(NCCCNc3ccnc4cc(Cl)ccc34)c3ccccc3n2)CC1	25.6 µM	13.6 µM	12.5 µM	13.4 µM	21.6 µM	12.5 µM	3.72 µM	3.5 µM	20.7 µM	12.8 µM	12.9 µM	3.92 µM	3 µM	3.53 µM	6.93 µM	2.69 µM	1.49 µM	1.74 µM	5.45 µM	3.23 µM
CCC(C)C1NC(=O)C2CCCN2C(=O)CNC(=O)C(C)NC(=O)C(Cc2ccccc2)NC(=O)C(C(C)C)NC1=O (centres undefined) (cyclo(GPIVFA); configuration not given here)	> 100 µM	> 100 µM	> 100 µM	> 100 µM	> 100 µM	> 100 µM	> 100 µM	> 100 µM	> 100 µM	> 100 µM	–	–	–	–	–	–	–	–	–	–
COC(=O)C1C=NNC1C(=O)OC (centres undefined)	> 100 µM	> 100 µM	> 100 µM	> 100 µM	> 100 µM	> 100 µM	> 100 µM	> 100 µM	> 100 µM	> 100 µM	–	–	–	–	–	–	–	–	–	–
C/C(=N\NC(=S)N1CCCCCCCCCCCC1)c1ccccn1	1.32 µM	1.41 µM	1.63 µM	1.43 µM	1.48 µM	1.51 µM	0.536 µM	0.846 µM	1 µM	0.692 µM	–	–	–	–	–	–	–	–	–	–
N#Cc1c(N)nc(N)nc1N[C@H](c1nc2c(F)ccc(Cl)c2c(=O)n1-c1cccnc1)C1CC1	1.55 µM	> 100 µM	28.4 µM	> 100 µM	16.3 µM	87.1 µM	3.46 µM	21 µM	6.9 µM	> 100 µM	0.249 µM	3.31 µM	12.7 µM	4.95 µM	1.47 µM	19.4 µM	0.32 µM	3.83 µM	0.171 µM	11.1 µM
Nc1nc(N)c2c(n1)NC(c1ccccc1)C1CCc3ccccc3C1=N2 (centres undefined)	8.66 µM	16.8 µM	15.6 µM	14.4 µM	15.4 µM	17.1 µM	19 µM	18.8 µM	20.8 µM	20.7 µM	2.29 µM	4.38 µM	3.82 µM	3.81 µM	3.48 µM	3.06 µM	4.89 µM	5.81 µM	7.95 µM	6.3 µM
Cc1[nH]c(-c2nc3ccccc3[nH]2)c(C)c1C(=O)NC(C)C1CCCCC1 (centres undefined)	20.1 µM	30.2 µM	34.6 µM	32 µM	21.6 µM	26.8 µM	11 µM	19.6 µM	16.4 µM	18.3 µM	7.71 µM	14.4 µM	13.6 µM	14.4 µM	9.72 µM	12.4 µM	3.17 µM	6.7 µM	3.62 µM	4.95 µM
COc1ccc(-c2cc(-c3cc(Cl)cc(Br)c3O)[nH]c(=O)n2)cc1	31.4 µM	27.7 µM	45.5 µM	34.6 µM	31.5 µM	26.5 µM	31.7 µM	28.8 µM	38.3 µM	46.9 µM	–	–	–	–	–	–	–	–	–	–
C/C(=N\NC(=S)N1CC2CCC(CC2)C1)c1cccc(C)n1	13.2 µM	5.33 µM	19.1 µM	5.53 µM	9.75 µM	16.1 µM	14.8 µM	2.58 µM	13.1 µM	31.8 µM	–	–	–	0.0633 µM	0.00014 µM	0.000172 µM	–	0.464 µM	–	0.383 µM
Cc1cc2nc3cc(C)c(N)cc3[n+](-c3ccccc3)c2cc1N	> 100 µM	> 100 µM	> 46 µM	19.7 µM	> 95.7 µM	> 100 µM	> 100 µM	> 100 µM	> 100 µM	> 45.2 µM	54.8 µM	> 68.2 µM	4.05 µM	3.57 µM	2.98 µM	3.57 µM	17.5 µM	4.39 µM	2.59 µM	5.62 µM
COC(=O)/C=C1/SC(N2N=C(c3cccs3)CC2c2ccc(F)cc2)=NC1=O (centres undefined)	6.26 µM	3.47 µM	3.52 µM	4.93 µM	5.27 µM	7.49 µM	3.26 µM	3.39 µM	7.28 µM	5 µM	1.81 µM	1.89 µM	1.97 µM	2.19 µM	2.19 µM	2.64 µM	1.73 µM	1.86 µM	1.64 µM	2.16 µM
CC1=C(C(=O)Nc2ccc([N+](=O)[O-])cc2)C(c2ccc3c(c2)OCO3)C(C(=O)Nc2ccc([N+](=O)[O-])cc2)=C(C)N1	69.1 µM	> 100 µM	57.4 µM	> 100 µM	> 100 µM	> 100 µM	> 100 µM	> 100 µM	45.7 µM	> 100 µM	–	–	–	–	–	–	–	–	–	–
COCCN1CCN(Cc2ccc(-c3n[nH]c4c3C(=O)c3c(NC(=O)NN5CCOCC5)cccc3-4)cc2)CC1	0.141 µM	> 10 µM	0.274 µM	0.623 µM	–	0.932 µM	0.0458 µM	0.086 µM	0.071 µM	> 6.22 µM	0.0292 µM	0.0512 µM	0.0262 µM	0.0274 µM	0.0242 µM	0.0322 µM	0.0189 µM	0.029 µM	0.0214 µM	0.0242 µM
CC(C)n1nc(-c2ccc3oc(N)nc3c2)c2c(N)ncnc21	< 0.01 µM	1.14 µM and 0.82 µM	11.5 µM and 11.9 µM	36.3 µM and 16.8 µM	0.411 µM and 0.759 µM	0.077 µM and 0.0569 µM	0.043 µM and 0.0533 µM	0.0902 µM and 0.113 µM	0.0532 µM and 0.0211 µM	21.1 µM and 12.6 µM	< 0.01 µM	0.0105 µM and 0.013 µM	0.024 µM and 0.0259 µM	< 0.01 µM	< 0.013 µM and 0.012 µM	< 0.01 µM	< 0.01 µM	0.0184 µM and 0.0175 µM	< 0.01 µM	0.037 µM and 0.0379 µM
O=[N+]([O-])c1cc(Cl)ccc1OCc1ccccc1	> 100 µM	> 100 µM	> 100 µM	> 100 µM	> 100 µM	> 100 µM	> 100 µM	> 100 µM	90.8 µM	> 100 µM	–	–	–	–	–	–	–	–	–	–
CCOC(=N)CC(=O)Nc1cccc(Cl)c1	> 100 µM	> 100 µM	> 100 µM	> 100 µM	> 100 µM	> 100 µM	> 100 µM	> 100 µM	> 100 µM	> 100 µM	–	–	–	–	–	–	–	–	–	–
Cc1ccc(C2=Nc3c(N)ncnc3NC(c3ccc4c(c3)OCO4)C2)cc1 (centres undefined)	35.2 µM	36.7 µM	67.1 µM	12.8 µM	6.11 µM	74.9 µM	23.1 µM	21.7 µM	37.2 µM	16.8 µM	6.33 µM	7.74 µM	6.3 µM	3.59 µM	2.75 µM	17.7 µM	3.5 µM	4.98 µM	4.55 µM	3.56 µM
CCC(=O)Nc1ccccc1C#C/C=C\C#Cc1ccccc1C(F)(F)F	10.7 µM	> 50 µM	14.9 µM	5.88 µM	11.2 µM	> 50 µM	> 12.7 µM	13.1 µM	5.85 µM	> 24.4 µM	1.68 µM	3.98 µM	4.19 µM	1.63 µM	2.4 µM	14.6 µM	2.84 µM	4.2 µM	0.884 µM	1.73 µM
O=C1C(=O)c2ccccc2C(O)=C1CCCc1ccc(C2CCCCCC2)cc1	13.1 µM	> 100 µM	22.7 µM	13.4 µM	16.3 µM	> 100 µM	41.7 µM	> 74.7 µM	52.2 µM	33.2 µM	0.349 µM	0.703 µM	0.863 µM	0.361 µM	0.781 µM	1.02 µM	10.2 µM	2.56 µM	2.5 µM	0.576 µM
COc1ccc2c(c1)CC1c3c(ccc(OC)c3O)CC2N1C (centres undefined)	> 100 µM	> 100 µM	30.8 µM	38.8 µM	> 100 µM	> 100 µM	43.6 µM	54.6 µM	> 100 µM	45.4 µM	–	–	–	–	–	–	–	–	–	–
Cc1ccc(C(SCC(N)C(=O)O)(c2ccccc2)c2ccccc2)cc1 (centres undefined)	> 64.7 µM	> 100 µM	15.2 µM	14.8 µM	0.158 µM	> 100 µM	> 100 µM	1.08 µM	58.3 µM	> 69.8 µM	1.02 µM	2.67 µM	0.246 µM	0.0718 µM	0.0391 µM	22.8 µM	0.103 µM	0.033 µM	0.128 µM	0.0437 µM
COc1ccc(/C=C2\CN(Cc3cn(CCNc4ccnc5cc(Cl)ccc45)nn3)C/C(=C\c3ccc(OC)c(OC)c3)C2=O)cc1OC	13.2 µM	19.9 µM	3.62 µM	5.74 µM	8.57 µM	> 100 µM	3.62 µM	8.14 µM	40.7 µM	6.15 µM	2.53 µM	5.25 µM	1.96 µM	2.22 µM	2.8 µM	4.07 µM	1.81 µM	2.58 µM	6.67 µM	2.32 µM
